# Measurements taken from paper PMC6284238 (Neuron, 2017).
# Biological target: T1, zebrafish SARM1-TIR (Danio rerio, UniProt F1QWA8)
# T1 sequence (F1QWA8 552-695 limits assumed): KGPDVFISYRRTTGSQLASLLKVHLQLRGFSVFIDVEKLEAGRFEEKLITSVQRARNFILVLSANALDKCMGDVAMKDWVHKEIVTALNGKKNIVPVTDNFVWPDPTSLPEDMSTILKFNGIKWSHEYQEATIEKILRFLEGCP
# Test: NADase assay with HPLC, purified bacterial protein
# Type: biochemical
structure (smiles),measurement,value
NC(=O)c1ccc[n+]([C@@H]2O[C@H](COP(=O)([O-])OP(=O)(O)OC[C@H]3O[C@@H](n4cnc5c(N)ncnc54)[C@H](O)[C@@H]3O)[C@@H](O)[C@H]2O)c1 [NAD^+],"NADase assay with HPLC, purified bacterial protein","bacterially expressed mouse, zebrafish, and Drosophila SARM1-TIR domains also degrade NAD^+ in vitro"
